Like-named read-outs stand apart in the source and are kept apart here.
Key:
[1] = system: human skeletal muscle cells; assay: Glucose uptake in human myotubes ([14C(U)]-glucose); type: cell-based; details: for increase in glucose uptake: 10 µM, 2 days, vs 0.1% DMSO control, mean ± SEM
Protocol: Figure 2 Effects of elderflower extracts, constituents and metabolites on glucose uptake in human myotubes. Myotubes were treated with (A) 12.5, 25 and 50 µg/mL of different crude extracts; (B,C) 0.1, 1 and 10 µM of elderflower phenolic compounds and metabolites for 2 days. Thereafter, the cells were exposed to [^14C(U)]-glucose (1 μCi/mL, 100 μM) for 4 h as described in the Materials and Methods section. 22-S-hydroxycholesterol (22-SHC) (10 μM) was used as positive control. The figures show [^14C(U)]-glucose uptake given as means ± standard error of the mean (SEM) (n = 3) from separate experiments. * p < 0.05 vs. control (0.1% dimethyl sulfoxide (DMSO)).
(§1) Satellite cells were isolated from the Musculus obliquus internus abdominis of four healthy donors, age 34.8 (±19) years, body mass index 22.9 (±2.7) kg/m^2, fasting glucose 4.9 (±0.6) mM, insulin, plasma lipids and blood pressure within normal range and no family history of diabetes. The muscle biopsies were obtained with informed consent and approval by the National Committee for Research Ethics (Oslo, Norway). The cells were cultured on 96-well CellBIND microplates DMEM-Glutamax (5.5 mM glucose), 2% fetal bovine serum, 2% Ultroser G, penicillin (100 units/mL), streptomycin (100 μg/mL) and amphotericin B (1.25 μg/mL) for proliferation. At 70%–80% confluence, the growth medium was replaced by DMEM-Glutamax (5.5 mM glucose) supplemented with 2% fetal bovine serum, penicillin (100 units/mL), streptomycin (100 μg/mL), amphotericin B (1.25 μg/mL) and insulin (25 pM), to induce differentiation. The cells were cultured in humidified 5% CO2 atmosphere at 37 °C, and the medium was changed every 2–3 days. Experiments were performed after 7 days of differentiation. 22-S-hydroxycholesterol (22-SHC) (10 µM) was used as positive control in the glucose uptake assay. The positive control used in the oleic acid assay is the synthetic liver X receptor (LXR) agonist T0901317 (10 µm).
(§2) Cells were exposed to test samples solved in 0.1% DMSO that were added directly to the medium for 2 days for myotubes and 24 h for HepG2 cells. Thereafter, cells were exposed to [^14C(U)]-glucose (1 μCi/mL, 100 μM) or [^14C]-oleic acid (37 kBq, 100 µM) for 4 h. A 96-well UniFilter-96 GF7B microplate (Perkin Elmer, Waltham, MA, USA) was mounted on top of the CellBIND plate (Corning Life-Sciences (Schiphol-Rijk, The Netherlands) and CO2 production was measured. After incubation the cells were washed twice with ice-cold phosphate buffered saline (PBS), lysed in 0.1 M NaOH, and radioactivity measured by liquid scintillation counting. The protein content of each sample was determined and glucose uptake was calculated using protein levels for standardization.

[2] = target: T1, Porcine pancreatic α-amylase (Sus scrofa, UniProt P00690); assay: α-Amylase inhibitory activity; type: biochemical; details: phenolic compounds and metabolites; IC50 ± SD
T1 construct: purchased Sigma-Aldrich Chemie GmbH
T1 sequence (P00690 16-511): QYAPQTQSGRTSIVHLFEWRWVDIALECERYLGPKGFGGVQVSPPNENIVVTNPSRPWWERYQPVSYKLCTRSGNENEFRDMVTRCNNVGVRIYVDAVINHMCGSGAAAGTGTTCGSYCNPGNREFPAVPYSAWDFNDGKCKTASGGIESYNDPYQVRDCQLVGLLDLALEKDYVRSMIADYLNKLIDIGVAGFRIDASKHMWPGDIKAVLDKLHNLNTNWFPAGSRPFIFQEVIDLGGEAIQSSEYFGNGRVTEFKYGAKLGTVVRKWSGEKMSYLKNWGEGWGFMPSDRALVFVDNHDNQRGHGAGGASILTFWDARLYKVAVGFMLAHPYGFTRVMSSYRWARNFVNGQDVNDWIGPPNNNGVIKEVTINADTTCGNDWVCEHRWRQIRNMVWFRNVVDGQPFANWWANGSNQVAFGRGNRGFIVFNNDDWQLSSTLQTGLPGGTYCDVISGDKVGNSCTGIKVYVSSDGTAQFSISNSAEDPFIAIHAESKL
Protocol: The α-amylase assay was performed as described by Gella, et al.. Porcine pancreatic α-amylase (EC 3.2.1.1) was purchased from Sigma-Aldrich Chemie GmbH.

[3] = target: T2, 15-lipoxygenase (15-LO) from soybeans (Glycine max, UniProt P08170); assay: Inhibition of 15-lipoxygenase; type: biochemical, soybean; details: IC50 ± SD
T2 construct: 15-lipoxygenase (15-LO) from soybeans; purchased Sigma-Aldrich (St. Louis, MO, USA); host or cells: soybeans
T2 sequence (P08170 1-839): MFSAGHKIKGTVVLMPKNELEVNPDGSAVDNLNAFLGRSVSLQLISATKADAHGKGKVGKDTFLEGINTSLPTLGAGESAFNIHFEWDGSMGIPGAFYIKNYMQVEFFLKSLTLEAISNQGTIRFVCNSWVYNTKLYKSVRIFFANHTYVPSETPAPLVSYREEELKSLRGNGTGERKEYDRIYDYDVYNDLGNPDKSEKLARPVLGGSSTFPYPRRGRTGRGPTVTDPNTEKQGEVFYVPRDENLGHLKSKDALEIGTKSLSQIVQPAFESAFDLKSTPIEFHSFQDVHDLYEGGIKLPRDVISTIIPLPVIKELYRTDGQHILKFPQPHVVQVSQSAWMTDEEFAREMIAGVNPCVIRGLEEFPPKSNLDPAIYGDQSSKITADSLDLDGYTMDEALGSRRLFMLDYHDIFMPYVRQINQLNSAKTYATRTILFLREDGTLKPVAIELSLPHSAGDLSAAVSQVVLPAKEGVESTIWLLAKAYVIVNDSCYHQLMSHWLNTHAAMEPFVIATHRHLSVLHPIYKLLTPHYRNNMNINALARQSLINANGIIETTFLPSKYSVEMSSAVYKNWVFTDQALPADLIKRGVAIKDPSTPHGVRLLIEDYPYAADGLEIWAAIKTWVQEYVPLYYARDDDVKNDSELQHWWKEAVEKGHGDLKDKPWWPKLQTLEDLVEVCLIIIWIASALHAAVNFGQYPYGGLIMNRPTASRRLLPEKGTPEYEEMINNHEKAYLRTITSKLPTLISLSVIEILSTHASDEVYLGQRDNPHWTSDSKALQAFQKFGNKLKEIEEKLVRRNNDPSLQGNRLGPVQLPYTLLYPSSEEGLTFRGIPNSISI
Protocol: Test substances were dissolved in DMSO or water, and the assay was carried out as previously described.

[4] = target: T3, Baker's yeast α-glucosidase (Saccharomyces cerevisiae, UniProt P53341); assay: biochemical; details: IC50 ± SD
T3 construct: purchased Sigma-Aldrich Chemie GmbH (Steinheim, Germany)
T3 sequence (P53341 whole entry): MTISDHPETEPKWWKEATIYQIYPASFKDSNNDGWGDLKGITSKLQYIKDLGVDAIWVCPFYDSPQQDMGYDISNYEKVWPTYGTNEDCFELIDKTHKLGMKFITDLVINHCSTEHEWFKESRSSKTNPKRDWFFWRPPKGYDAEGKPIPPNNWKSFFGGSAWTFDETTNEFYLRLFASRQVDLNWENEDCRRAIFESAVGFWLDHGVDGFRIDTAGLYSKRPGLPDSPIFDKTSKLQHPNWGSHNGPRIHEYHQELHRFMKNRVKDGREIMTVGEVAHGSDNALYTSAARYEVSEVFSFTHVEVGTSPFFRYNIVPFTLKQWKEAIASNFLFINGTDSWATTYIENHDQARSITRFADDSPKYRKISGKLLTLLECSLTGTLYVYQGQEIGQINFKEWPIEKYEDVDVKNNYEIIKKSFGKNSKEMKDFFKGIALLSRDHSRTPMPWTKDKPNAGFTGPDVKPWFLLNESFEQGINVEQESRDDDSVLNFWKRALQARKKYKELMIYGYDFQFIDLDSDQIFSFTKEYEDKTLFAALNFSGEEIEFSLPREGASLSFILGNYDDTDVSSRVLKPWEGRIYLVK
Protocol: The α-glucosidase inhibitory activity of the extracts was assessed according to the method described by Ranilla, et al.. Baker’s yeast α-glucosidase (EC 3.2.1.20) was purchased from Sigma-Aldrich Chemie GmbH (Steinheim, Germany).

DPPH radical scavenging = details: phenolic compounds and metabolites; IC50 ± SD
Protocol: Scavenging activity towards the DPPH radical was carried out as previously described. Test substances were dissolved in DMSO or water. Values were corrected for absorbance of the test substances.

[5] = system: human skeletal muscle cells; assay: Oleic acid uptake in human myotubes ([14C]-oleic acid); type: cell-based; details: for oleic acid uptake (in words): 10 µM; for increase in oleic acid uptake: 10 µM (highest concentration tested), 2 days, vs 0.1% DMSO control
Protocol: Figure 3 Effects of elderflower extracts, constituents and metabolites on oleic acid uptake in human myotubes. Myotubes were treated with (A) 12.5, 25 and 50 µg/mL of different crude extracts; (B,C) 0.1, 1 and 10 µM of elderflower phenolic compounds and metabolites for 2 days. Thereafter, the cells were exposed to [^14C]-oleic acid (37 kBq, 100 µM) for 4 h as described in Materials and Methods. A synthetic liver X receptor (LXR) agonist T0901317 (10 μM) was used as positive control. The figures show [^14C]-oleic acid uptake given as means ± SEM (n = 3) from separate experiments. * p < 0.05 vs. control (0.1% DMSO).
as §1, §2

[6] = target: T4, xanthine oxidase from bovine milk (Bos taurus, UniProt P80457); assay: Inhibition of xanthine oxidase; type: biochemical; details: for IC50: phenolic compounds and metabolites, IC50 ± SD, read-out: XO IC50; for XO inhibition (in words): up to highest concentration tested (167 µM)
T4 construct: xanthine oxidase from bovine milk; purchased Sigma-Aldrich (St. Louis, MO, USA); host or cells: bovine milk
T4 sequence (P80457 whole entry): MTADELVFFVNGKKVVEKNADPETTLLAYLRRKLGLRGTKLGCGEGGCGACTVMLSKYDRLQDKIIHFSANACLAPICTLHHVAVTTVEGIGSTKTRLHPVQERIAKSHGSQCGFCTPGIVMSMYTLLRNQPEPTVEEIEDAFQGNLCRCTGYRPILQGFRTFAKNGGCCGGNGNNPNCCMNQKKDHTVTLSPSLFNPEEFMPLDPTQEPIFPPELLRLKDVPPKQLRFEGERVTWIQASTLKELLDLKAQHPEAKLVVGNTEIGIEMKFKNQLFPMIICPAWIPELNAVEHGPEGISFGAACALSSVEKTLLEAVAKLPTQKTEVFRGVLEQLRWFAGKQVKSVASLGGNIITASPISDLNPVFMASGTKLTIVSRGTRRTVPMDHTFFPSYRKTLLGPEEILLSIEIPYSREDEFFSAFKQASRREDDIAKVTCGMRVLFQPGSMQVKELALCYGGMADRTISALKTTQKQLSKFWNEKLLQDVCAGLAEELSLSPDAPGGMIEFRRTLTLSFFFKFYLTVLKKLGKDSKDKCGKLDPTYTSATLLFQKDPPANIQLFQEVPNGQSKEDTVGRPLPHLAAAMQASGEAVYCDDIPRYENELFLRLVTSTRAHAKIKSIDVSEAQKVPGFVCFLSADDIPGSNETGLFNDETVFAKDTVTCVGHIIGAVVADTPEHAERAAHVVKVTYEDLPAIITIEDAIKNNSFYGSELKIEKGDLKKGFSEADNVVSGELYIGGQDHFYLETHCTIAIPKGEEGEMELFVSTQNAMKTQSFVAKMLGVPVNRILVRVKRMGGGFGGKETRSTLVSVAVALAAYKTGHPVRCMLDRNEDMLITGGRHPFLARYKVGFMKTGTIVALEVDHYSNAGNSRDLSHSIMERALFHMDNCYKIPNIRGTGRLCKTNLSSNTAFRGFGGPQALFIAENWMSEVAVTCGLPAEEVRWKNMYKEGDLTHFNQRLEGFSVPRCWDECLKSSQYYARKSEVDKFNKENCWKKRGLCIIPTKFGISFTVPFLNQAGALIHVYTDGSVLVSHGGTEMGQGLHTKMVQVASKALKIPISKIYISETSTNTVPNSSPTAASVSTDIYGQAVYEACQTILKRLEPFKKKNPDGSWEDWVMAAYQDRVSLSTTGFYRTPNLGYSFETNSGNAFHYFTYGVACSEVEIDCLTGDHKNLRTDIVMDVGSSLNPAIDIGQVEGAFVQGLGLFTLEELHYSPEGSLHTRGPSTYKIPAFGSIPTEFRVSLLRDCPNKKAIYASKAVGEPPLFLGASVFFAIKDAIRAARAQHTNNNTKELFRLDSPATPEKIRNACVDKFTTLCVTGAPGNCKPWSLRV
Protocol: The XO inhibitory activity with hypoxanthine as the substrate was carried out previously described. Test substances were dissolved in DMSO or water.

[7] = 10 µM (highest concentration tested)
[8] = phenolic compounds and metabolites, read-out: 15-LO IC50
[9] = phenolic compounds and metabolites, read-out: α-Glucosidase IC50
[10] = 15-LO IC50, phenolic compounds and metabolites
[11] = α-Glucosidase IC50, phenolic compounds and metabolites

Structure (SMILES)	IC50 [2] [µM]	IC50 [3, 8] [µM]	IC50 [4, 9] [µM]	IC50 [6] [µM]	XO inhibition (in words) [6]	glucose uptake (in words) [1, 7]	IC50 (DPPH radical scavenging) [µM]	oleic acid uptake (in words) [5]	glucose uptake (in words) ([1]; 0.1 and 1 µM, compared to DMSO control)	IC50 [3, 10] [µM]	IC50 [4, 11] [µM]	increase in glucose uptake [1]	increase in oleic acid uptake [5]
O=C(O)c1ccccc1 [Benzoic acid]	–	–	–	> 167	inactive	–	145 ± 5.8	–	inactive	138 ± 6.5	129 ± 3.8	–	–
O=C(O)/C=C/c1ccc(O)c(O)c1 [Caffeic acid]	–	–	–	107 ± 3.2	–	–	90.3 ± 4.3	–	–	–	18.5 ± 0.9	–	–
Oc1cc(O)c2c(c1)O[C@H](c1ccc(O)c(O)c1)[C@H](O)C2 [Epicatechin]	9.7 ± 2.1	116 ± 7.9	12.1 ± 2.3	> 167	did not inhibit	–	15.6 ± 2.3	–	–	–	–	–	–
COc1cc(-c2oc3cc(O)cc(O)c3c(=O)c2O)ccc1O [Isorhamnetin]	–	–	–	–	–	–	63.3 ± 2.3	–	–	103 ± 2.4	8.1 ± 3.1	18.8% ± 4.3%	–
CC1OC(OCC2OC(Oc3c(-c4ccc(O)cc4)oc4cc(O)cc(O)c4c3=O)C(O)C(O)C2O)C(O)C(O)C1O (centres unmarked) [Kaempferol-3-rutinoside]	19.1 ± 0.5	109 ± 5.6	–	63.8 ± 2.1	–	–	30.6 ± 3.9	–	–	–	23.9 ± 1.1	29.7% ± 2.5%	–
O=C1C[C@@H](c2ccc(O)cc2)Oc2cc(O)cc(O)c21 [Naringenin]	6.2 ± 1.1	124 ± 3.5	–	95.1 ± 4.5	–	–	23.3 ± 1.4	–	–	–	–	–	–
O=c1c(OC2OC(CO)C(O)C(O)C2O)c(-c2ccc(O)c(O)c2)oc2cc(O)cc(O)c12 (centres unmarked) [Quercetin-3-glucoside]	3 ± 1.2	–	–	106 ± 5.3	–	–	17.6 ± 3.2	–	–	–	4.1 ± 1.9	–	13.1% ± 3.5%
CC1OC(Oc2c(-c3ccc(O)c(O)c3)oc3cc(O)cc(O)c3c2=O)C(O)C(O)C1O (centres unmarked) [Quercetin-3-rhamnoside]	3.5 ± 0.9	108 ± 4.6	–	105 ± 4.6	–	–	19.1 ± 2.1	–	–	–	3.9 ± 1.4	–	5.0% ± 6.0%
C[C@@H]1O[C@@H](OC[C@H]2O[C@@H](Oc3c(-c4ccc(O)c(O)c4)oc4cc(O)cc(O)c4c3=O)[C@H](O)[C@@H](O)[C@@H]2O)[C@H](O)[C@H](O)[C@H]1O [Rutin, Quercetin-3-rutinoside]	4.1 ± 0.8	99.3 ± 1.1	–	42.9 ± 2.9	–	–	22.5 ± 1.6	–	–	–	4.6 ± 2.3	–	–

Further lines, with some results ahead:

IC50 [2] [µM]	IC50 [3, 8] [µM]	IC50 [4, 9] [µM]	IC50 [6] [µM]	XO inhibition (in words) [6]	Structure (SMILES)	glucose uptake (in words) [1, 7]	IC50 (DPPH radical scavenging) [µM]	oleic acid uptake (in words) [5]	glucose uptake (in words) ([1]; 0.1 and 1 µM, compared to DMSO control)	IC50 [3, 10] [µM]	IC50 [4, 11] [µM]	increase in glucose uptake [1]	increase in oleic acid uptake [5]
74.9 ± 1.7	135 ± 7.3	78.5 ± 1.6	> 167	inactive	O=C(O)Cc1ccc(O)c(O)c1 [3,4-Dihydroxyphenylacetic acid]	small increase	116 ± 1.4	small but significant increase	–	–	–	–	–
44.8 ± 5.3	134 ± 5.8	68.9 ± 3.8	> 167	inactive	O=C(O)Cc1cccc(O)c1 [3-Hydroxyphenylacetic acid]	small increase	125 ± 4.8	small but significant increase	–	–	–	–	–
94.8 ± 6.8	129 ± 5.2	98.9 ± 3.5	> 167	inactive	Cc1ccc(O)c(O)c1 [4-Methylcatechol]	small increase	40.5 ± 3.6	small but significant increase	–	–	–	–	–
14.1 ± 0.8	–	18.5 ± 2.2	> 167	did not inhibit	Oc1cc(O)c2c(c1)O[C@H](c1ccc(O)c(O)c1)[C@@H](O)C2 [Catechin]	–	19 ± 1.1	–	–	–	–	–	–
26.2 ± 0.7	115 ± 6.2	25.2 ± 2.9	125 ± 3.9	–	COc1cc(-c2oc3cc(O)cc(O)c3c(=O)c2OC2OC(COC3OC(C)C(O)C(O)C3O)C(O)C(O)C2O)ccc1O (centres unmarked) [Isorhamnetin-3-rutinoside]	–	85 ± 2.1	–	–	–	–	10.0% ± 3.6%	–
15.4 ± 3.2	115 ± 5.8	–	26.2 ± 3.1	–	O=C(C=Cc1ccc(O)c(O)c1)OC1CC(O)(C(=O)O)CC(O)C1O (centres unmarked) [Neochlorogenic acid]	–	–	–	–	–	–	–	–

— publication PMC6155811, “Effect of Phenolic Compounds from Elderflowers on Glucose- and Fatty Acid Uptake in Human Myotubes and HepG2-Cells” (Molecules : A Journal of Synthetic Chemistry and Natural …, 2017)
